# Assay results: patent US11008314B2, “Compounds and methods for modulating interleukin-2-inducible t-cell kinase” (CORVUS PHARMACEUTICALS, INC., priority 2016, dated 2021)
# Tests used:
# Type in all cases: biochemical
# JAK3 = JAK3 (Homo sapiens (Human), UniProt P52333); test: IC50 against JAK3
# BTK = BTK (Homo sapiens (Human), UniProt Q06187); test: IC50 against BTK
# ITK = ITK (Homo sapiens (Human), UniProt Q08881); test: IC50 against ITK
# TXK = TXK (Homo sapiens (Human), UniProt P42681); test: IC50 against TXK; conditions: for TXK/ITK: ratio of TXK IC50 to ITK IC50
# TXK, sequence (P42681 whole entry, species assumed): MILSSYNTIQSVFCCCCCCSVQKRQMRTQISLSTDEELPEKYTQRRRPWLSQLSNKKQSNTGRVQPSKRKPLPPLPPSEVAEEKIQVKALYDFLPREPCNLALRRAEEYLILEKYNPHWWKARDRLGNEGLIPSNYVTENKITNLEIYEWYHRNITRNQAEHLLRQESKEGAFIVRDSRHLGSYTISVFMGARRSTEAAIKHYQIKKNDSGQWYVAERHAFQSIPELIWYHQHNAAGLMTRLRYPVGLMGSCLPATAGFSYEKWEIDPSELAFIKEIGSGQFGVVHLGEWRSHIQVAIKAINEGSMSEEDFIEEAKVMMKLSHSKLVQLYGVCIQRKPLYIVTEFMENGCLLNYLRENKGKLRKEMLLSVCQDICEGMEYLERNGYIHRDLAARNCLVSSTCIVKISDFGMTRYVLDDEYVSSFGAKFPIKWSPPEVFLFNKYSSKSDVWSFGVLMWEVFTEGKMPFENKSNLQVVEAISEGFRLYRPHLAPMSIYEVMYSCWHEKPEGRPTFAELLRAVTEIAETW
# JAK3, sequence (P52333 whole entry, species assumed): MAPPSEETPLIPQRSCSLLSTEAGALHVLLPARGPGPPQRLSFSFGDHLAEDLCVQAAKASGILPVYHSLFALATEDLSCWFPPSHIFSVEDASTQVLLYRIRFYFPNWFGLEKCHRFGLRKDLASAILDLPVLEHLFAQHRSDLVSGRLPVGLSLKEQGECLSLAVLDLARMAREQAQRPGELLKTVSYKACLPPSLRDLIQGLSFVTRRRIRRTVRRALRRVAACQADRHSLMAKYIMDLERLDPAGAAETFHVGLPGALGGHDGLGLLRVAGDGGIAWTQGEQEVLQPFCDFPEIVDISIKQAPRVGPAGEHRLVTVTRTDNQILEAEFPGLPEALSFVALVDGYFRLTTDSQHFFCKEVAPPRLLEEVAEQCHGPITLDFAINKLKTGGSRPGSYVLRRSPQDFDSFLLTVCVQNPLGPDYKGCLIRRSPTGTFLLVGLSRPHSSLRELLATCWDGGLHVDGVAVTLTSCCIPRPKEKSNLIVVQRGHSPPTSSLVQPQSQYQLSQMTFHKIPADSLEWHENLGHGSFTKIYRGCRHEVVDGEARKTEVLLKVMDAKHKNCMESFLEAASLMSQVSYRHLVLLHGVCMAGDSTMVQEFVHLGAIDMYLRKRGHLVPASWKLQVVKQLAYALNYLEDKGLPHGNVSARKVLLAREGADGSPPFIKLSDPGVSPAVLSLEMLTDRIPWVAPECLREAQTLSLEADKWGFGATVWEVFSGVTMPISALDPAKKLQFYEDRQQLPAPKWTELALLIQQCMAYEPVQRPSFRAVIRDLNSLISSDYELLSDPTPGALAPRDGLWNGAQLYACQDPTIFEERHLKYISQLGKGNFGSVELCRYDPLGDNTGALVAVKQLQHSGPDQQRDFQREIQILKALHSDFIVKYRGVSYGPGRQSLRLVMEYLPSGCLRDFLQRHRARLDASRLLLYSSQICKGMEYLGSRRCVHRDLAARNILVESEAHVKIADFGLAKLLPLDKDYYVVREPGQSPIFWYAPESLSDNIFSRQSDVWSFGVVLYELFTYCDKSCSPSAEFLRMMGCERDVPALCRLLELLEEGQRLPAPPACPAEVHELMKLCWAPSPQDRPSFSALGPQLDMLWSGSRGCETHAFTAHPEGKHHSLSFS
# BTK, sequence (Q06187 whole entry, species assumed): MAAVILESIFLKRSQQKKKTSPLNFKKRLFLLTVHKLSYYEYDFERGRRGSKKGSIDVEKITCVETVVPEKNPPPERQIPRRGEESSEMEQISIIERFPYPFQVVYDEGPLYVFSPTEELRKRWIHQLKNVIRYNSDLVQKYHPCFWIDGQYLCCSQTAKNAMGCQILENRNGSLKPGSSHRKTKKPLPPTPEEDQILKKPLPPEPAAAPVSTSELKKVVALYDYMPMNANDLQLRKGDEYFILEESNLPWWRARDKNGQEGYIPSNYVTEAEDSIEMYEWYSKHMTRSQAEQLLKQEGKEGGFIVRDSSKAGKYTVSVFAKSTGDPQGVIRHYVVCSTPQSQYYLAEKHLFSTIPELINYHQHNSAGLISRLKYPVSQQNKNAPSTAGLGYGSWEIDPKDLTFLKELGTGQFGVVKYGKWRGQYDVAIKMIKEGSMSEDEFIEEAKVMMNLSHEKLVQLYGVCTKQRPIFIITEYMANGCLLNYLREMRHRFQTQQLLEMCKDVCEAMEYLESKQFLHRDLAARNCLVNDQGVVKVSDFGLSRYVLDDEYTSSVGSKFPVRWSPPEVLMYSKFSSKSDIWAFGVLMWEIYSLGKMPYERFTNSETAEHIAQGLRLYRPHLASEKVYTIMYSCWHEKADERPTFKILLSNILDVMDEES
# ITK, sequence (Q08881 whole entry): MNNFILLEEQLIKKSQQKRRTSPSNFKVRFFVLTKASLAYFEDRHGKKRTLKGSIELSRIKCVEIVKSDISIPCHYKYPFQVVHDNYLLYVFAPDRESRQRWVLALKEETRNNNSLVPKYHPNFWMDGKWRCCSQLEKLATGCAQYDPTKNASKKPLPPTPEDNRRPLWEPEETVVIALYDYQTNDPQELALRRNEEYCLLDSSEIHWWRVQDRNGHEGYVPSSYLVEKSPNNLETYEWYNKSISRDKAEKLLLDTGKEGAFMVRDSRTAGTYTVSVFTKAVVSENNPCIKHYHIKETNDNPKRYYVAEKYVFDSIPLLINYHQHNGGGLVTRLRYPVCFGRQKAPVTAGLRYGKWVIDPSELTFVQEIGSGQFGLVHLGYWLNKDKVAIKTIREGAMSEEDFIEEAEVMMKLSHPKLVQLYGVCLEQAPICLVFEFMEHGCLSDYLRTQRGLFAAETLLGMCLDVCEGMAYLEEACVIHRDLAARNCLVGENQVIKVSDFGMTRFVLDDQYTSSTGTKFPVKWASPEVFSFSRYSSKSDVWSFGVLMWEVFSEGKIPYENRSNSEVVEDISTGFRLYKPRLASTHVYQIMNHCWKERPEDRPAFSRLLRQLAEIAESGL
Compound,IC50 (JAK3) [nM],IC50 (BTK) [nM],IC50 (ITK) [nM],IC50 (TXK) [nM],TXK/ITK (TXK)
C=CC(=O)N1CCN(C(=O)c2cc(Sc3cnc(NC(=O)C4CC4)s3)c(Cl)cc2C)C[C@H]1C [Compound 81],100 to 1000,1000 to 10000,< 10,100 to 1000,19.042
C=CC(=O)N1CCN(C(=O)c2cc(Sc3cnc(NC(=O)C4CC4)s3)c(F)cc2C)C[C@H]1C [Compound 82],100 to 1000,≥ 10000,10 to 100,100 to 1000,9.2468
C=CC(=O)N1CCCN(C(=O)c2cc(Sc3cnc(NC(=O)C4CC4)s3)c(F)cc2C)C[C@H]1C [Compound 83],1000 to 10000,≥ 10000,10 to 100,1000 to 10000,45.317
C=CC(=O)N1CCN(C(=O)c2cc(Sc3cnc(NC(=O)C4CCC4)s3)c(C)cc2OC)CC1 [Compound 84],1000 to 10000,1000 to 10000,< 10,10 to 100,21.948
C=CC(=O)N1CCN(C(=O)c2cc(Sc3cnc(NC(=O)c4cnsc4)s3)c(C)cc2OC)CC1 [Compound 85],100 to 1000,100 to 1000,< 10,10 to 100,33.582
C=CC(=O)N1CCCN(C(=O)c2cc(Sc3cnc(NC(=O)C4CCC4)s3)c(C)cc2OC)C[C@H]1C [Compound 86],≥ 10000,≥ 10000,10 to 100,1000 to 10000,227.64
C=CC(=O)N1CCN(C(=O)c2cc(Sc3cnc(NC(=O)c4ccncc4)s3)c(C)cc2OC)CC1 [Compound 87],1000 to 10000,100 to 1000,< 10,100 to 1000,74.161
C=C(CN(C)C)C(=O)N1CCCN(C(=O)c2cc(Sc3cnc(NC(=O)C4CC4)s3)c(C)cc2OC)C[C@H]1C [Compound 88],≥ 10000,≥ 10000,100 to 1000,≥ 10000,30.436
C=CC(=O)N1CCN(C(=O)c2cc(Sc3cnc(NC(=O)c4cccnc4)s3)c(C)cc2OC)CC1 [Compound 89],1000 to 10000,100 to 1000,< 10,100 to 1000,45.743
C=CC(=O)N1CCN(C(=O)c2cc(Sc3cnc(NC(=O)c4cnn(C)c4)s3)c(C)cc2OC)CC1 [Compound 91],100 to 1000,10 to 100,< 10,10 to 100,20.093
C=CC(=O)N1CCN(C(=O)c2cc(Sc3cnc(NC(=O)c4cocn4)s3)c(C)cc2OC)CC1 [Compound 92],100 to 1000,100 to 1000,< 10,100 to 1000,19.123
C=CC(=O)N1CCCN(C(=O)c2cc(Sc3cnc(NC(=O)c4cnsc4)s3)c(C)cc2OC)C[C@H]1C [Compound 93],≥ 10000,1000 to 10000,< 10,100 to 1000,252.91
COc1cc(C)c(Sc2cnc(NC(=O)C3CC3)s2)cc1C(=O)N1CCCN(C(=O)/C=C/CN(C)C)[C@H](C)C1 [Compound 94],≥ 10000,≥ 10000,100 to 1000,≥ 10000,61.81
C=CC(=O)N1CCN(C(=O)c2cc(Sc3cnc(NC(=O)c4ccccn4)s3)c(C)cc2OC)CC1 [Compound 95],1000 to 10000,100 to 1000,10 to 100,100 to 1000,14.201
C=CC(=O)N1CCN(C(=O)c2cc(Sc3cnc(NC(=O)c4nccn4C)s3)c(C)cc2OC)CC1 [Compound 96],100 to 1000,100 to 1000,< 10,10 to 100,11.966
C=CC(=O)N1CCN(C(=O)c2cc(Sc3cnc(NC(=O)c4cn(C)cn4)s3)c(C)cc2OC)CC1 [Compound 97],1000 to 10000,100 to 1000,< 10,100 to 1000,12.995
C=CC(=O)N1CCN(C(=O)c2cc(Sc3cnc(Nc4ccccn4)s3)c(C)cc2OC)CC1 [Compound 98],10 to 100,< 10,< 10,< 10,8.2157
C=CC(=O)N1CCN(C(=O)c2cc(Sc3cnc(NC(=O)C4CC4)s3)c(C)cc2Cl)C[C@H]1CC [Compound 99],100 to 1000,1000 to 10000,10 to 100,10 to 100,4.279
C=CC(=O)N1CCN(C(=O)c2cc(Sc3cnc(NC(=O)C4CC4)s3)c(C)cc2C)C[C@H]1CC [Compound 100],100 to 1000,1000 to 10000,< 10,10 to 100,8.8107
C=CC(=O)N1CCN(C(=O)c2cc(Sc3cnc(NC(=O)C4CC4)s3)c(Cl)cc2C)C[C@H]1CC [Compound 101],100 to 1000,≥ 10000,10 to 100,100 to 1000,14.4
C=CC(=O)N1CCN(C(=O)c2cc(Sc3cnc(NC(=O)c4cnn(CCN(C)C)c4)s3)c(C)cc2OC)CC1 [Compound 102],100 to 1000,10 to 100,< 10,10 to 100,32.9
C=CC(=O)N1CCCN(C(=O)c2cc(Sc3cnc(Nc4ccccn4)s3)c(C)cc2OC)C[C@H]1C [Compound 103],100 to 1000,100 to 1000,< 10,10 to 100,47.6
C=CC(=O)N1CCN(C(=O)c2cc(Sc3cnc(NC(=O)C4CC4)s3)c(C)cc2CC)C[C@H]1CC [Compound 104],100 to 1000,100 to 1000,< 10,10 to 100,3.6
C=CC(=O)N1CCCN(C(=O)c2cc(Sc3cnc(NC(=O)C4CC4)s3)c(C)cc2CC)C[C@H]1C [Compound 105],1000 to 10000,100 to 1000,< 10,100 to 1000,12.3
C=CC(=O)N1CCN(C(=O)c2cc(Sc3cnc(NC(=O)C4CC4)s3)c(C)cc2CC)CC1 [Compound 106],10 to 100,10 to 100,< 10,< 10,2.9
C=CC(=O)N1CCN(C(=O)c2cc(Sc3cnc(NC(=O)c4cccc(CN(C)C)c4)s3)c(C)cc2C)CC1 [Compound 107],100 to 1000,100 to 1000,< 10,10 to 100,61.8
C=CC(=O)N1CCN(C(=O)c2cc(Sc3cnc(NC(=O)c4cnn(C)c4)s3)c(C)cc2C)CC1 [Compound 108],100 to 1000,100 to 1000,< 10,10 to 100,12.1
C=CC(=O)N1CCN(C(=O)c2cc(Sc3cnc(NC(=O)c4ccsc4)s3)c(C)cc2C)CC1 [Compound 109],10 to 100,10 to 100,< 10,10 to 100,13.5
C=CC(=O)N1CCCN(C(=O)c2cc(Sc3cnc(NC(=O)N(C)C)s3)c(C)cc2OC)C[C@H]1C [Compound 110],1000 to 10000,≥ 10000,100 to 1000,≥ 10000,46.6
C=CC(=O)N1CCCN(C(=O)c2cc(Sc3cnc(NC(=O)C4CC4)s3)c(C)cc2OC)C[C@H]1CC [Compound 111],1000 to 10000,100 to 1000,< 10,100 to 1000,81.1
